Results published in US20020111274A1, “1-alkyl-3-[1-(substituted phenyl) benzotriazol-6-yl] uracils” (BASF Aktiengesellschaft, priority 2000, published 2002).

Legend:
ZEAMX Corn, Field [1] = test: Preemergence herbicidal evaluation, ZEAMX; assay type: in vivo, Zea mays, L. (Sammel-Bezeichnung); set-up: scale not given here; conditions: preemergence
Method in brief: (§1)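 Visual ratings were taken four to five weeks after application. Before that, cups sown with seed in potting soil received a spray of compound dissolved in aqueous acetone, equivalent to about 0.013 to 0.800 kg/ha, and stood on greenhouse benches under conventional care.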

AMBEL Ragweed, Common [2] = test: Preemergence herbicidal evaluation, AMBEL; assay type: in vivo, Ambrosia artemisifolia, L.; set-up: scale not given here; conditions: preemergence
Method in brief: as §1

ABUTH Velvetleaf = test: Postemergence herbicidal evaluation, ABUTH; assay type: in vivo, Abutilon theophrasti, Medic.; set-up: scale not given here; conditions: postemergence spray, rated about two-three weeks after treatment
Method in brief: (§2)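 Postemergence spray, 40 psi nozzle, on ~2-week seedlings. Carrier: acetone/water 80/20, 1.0% methylated seed oil; dose ~0.006–0.400 kg/ha. Scored visually at 2–3 weeks.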

ZEAMX Corn, Field [3] = test: Postemergence herbicidal evaluation, ZEAMX; assay type: in vivo, Zea mays, L. (Sammel-Bezeichnung); set-up: scale not given here; conditions: postemergence spray, rated about two-three weeks after treatment
Method in brief: as §2

AMBEL Ragweed, Common [4] = test: Postemergence herbicidal evaluation, AMBEL; assay type: in vivo, Ambrosia artemisifolia, L.; set-up: scale not given here; conditions: postemergence spray, rated about two-three weeks after treatment
Method in brief: as §2

ORYSAT Rice, Tebonnet = test: Preemergence herbicidal evaluation, ORYSAT; assay type: in vivo, Oryza sativa, (L.); set-up: scale not given here; conditions: preemergence
Method in brief: as §1

[5] = system: CHEAL Lambsquarters, Common; test: Preemergence herbicidal evaluation, CHEAL; assay type: in vivo, Chenopodium album, L.; set-up: scale not given here; conditions: preemergence
Method in brief: as §1

ECHOG Barnyardgrass = test: Preemergence herbicidal evaluation, ECHOG; assay type: in vivo, Echinochloa crus-galli, (L.) Beau; set-up: scale not given here; conditions: preemergence
Method in brief: as §1

[6] = system: IPOHE Morningglory, Ivyleaf; test: Postemergence herbicidal evaluation, IPOHE; assay type: in vivo, Ipomoea hederacea, (L.) Jacq.; set-up: scale not given here; conditions: postemergence spray, rated about two-three weeks after treatment
Method in brief: as §2

[7] = system: TRZAWR Wheat, Winter, cv Riband; test: Preemergence herbicidal evaluation, TRZAWR; assay type: in vivo, Triticum aestivum; set-up: scale not given here; conditions: preemergence
Method in brief: as §1

[8] = system: CHEAL Lambsquarters, Common; test: Postemergence herbicidal evaluation, CHEAL; assay type: in vivo, Chenopodium album, L.; set-up: scale not given here; conditions: postemergence spray, rated about two-three weeks after treatment
Method in brief: as §2

GALAP Galium = test: Postemergence herbicidal evaluation, GALAP; assay type: in vivo, Galium aparine; set-up: scale not given here; conditions: postemergence spray, rated about two-three weeks after treatment
Method in brief: as §2

SMILES: CCc1cccc(-n2nnc3cc(F)c(-n4c(=O)cc(C(F)(F)F)n(C)c4=O)cc32)c1 [Example 29, 3-[1-(3-ethylphenyl)-5-fluoro-1H-1,2,3-benzotriazol-6-yl]-1-methyl-6-(trifluoromethyl)-2,4(1H,3H)-pyrimidinedione]
- ZEAMX herbicidal rating (ZEAMX Corn, Field [1]; rate 0.016 kg/ha): 0.0
- ZEAMX herbicidal rating (ZEAMX Corn, Field [1]; rate 0.032 kg/ha): 2.0
- ZEAMX herbicidal rating (ZEAMX Corn, Field [1]; rate 0.062 kg/ha): 4.0
- ZEAMX herbicidal rating (ZEAMX Corn, Field [1]; rate 0.125 kg/ha): 5.0
- AMBEL herbicidal rating (AMBEL Ragweed, Common [2]; rate 0.016 kg/ha): 0.0
- AMBEL herbicidal rating (AMBEL Ragweed, Common [2]; rate 0.032 kg/ha): 0.0
- AMBEL herbicidal rating (AMBEL Ragweed, Common [2]; rate 0.062 kg/ha): 3.0
- AMBEL herbicidal rating (AMBEL Ragweed, Common [2]; rate 0.125 kg/ha): 7.0
- Postemergence herbicidal rating ABUTH (ABUTH Velvetleaf; 0.008 kg/ha): 9.0
- Postemergence herbicidal rating ABUTH (ABUTH Velvetleaf; 0.016 kg/ha): 9.0
- Postemergence herbicidal rating ABUTH (ABUTH Velvetleaf; 0.032 kg/ha): 9.0
- Postemergence herbicidal rating ABUTH (ABUTH Velvetleaf; 0.062 kg/ha): 9.0
- Postemergence herbicidal rating ZEAMX (ZEAMX Corn, Field [3]; 0.008 kg/ha): 3.5
- Postemergence herbicidal rating ZEAMX (ZEAMX Corn, Field [3]; 0.016 kg/ha): 5.0
- Postemergence herbicidal rating ZEAMX (ZEAMX Corn, Field [3]; 0.032 kg/ha): 5.0
- Postemergence herbicidal rating ZEAMX (ZEAMX Corn, Field [3]; 0.062 kg/ha): 5.0
- Postemergence herbicidal rating AMBEL (AMBEL Ragweed, Common [4]; 0.008 kg/ha): 7.0
- Postemergence herbicidal rating AMBEL (AMBEL Ragweed, Common [4]; 0.016 kg/ha): 7.0
- Postemergence herbicidal rating AMBEL (AMBEL Ragweed, Common [4]; 0.032 kg/ha): 6.0
- Postemergence herbicidal rating AMBEL (AMBEL Ragweed, Common [4]; 0.062 kg/ha): 9.0
- ORYSAT herbicidal rating (ORYSAT Rice, Tebonnet; rate 0.016 kg/ha): 0.0
- ORYSAT herbicidal rating (ORYSAT Rice, Tebonnet; rate 0.032 kg/ha): 1.0
- ORYSAT herbicidal rating (ORYSAT Rice, Tebonnet; rate 0.062 kg/ha): 3.0
- ORYSAT herbicidal rating (ORYSAT Rice, Tebonnet; rate 0.125 kg/ha): 4.0
- CHEAL herbicidal rating ([5]; rate 0.016 kg/ha): 9.0
- CHEAL herbicidal rating ([5]; rate 0.032 kg/ha): 9.0
- CHEAL herbicidal rating ([5]; rate 0.062 kg/ha): 9.0
- CHEAL herbicidal rating ([5]; rate 0.125 kg/ha): 9.0
- ECHCG herbicidal rating (ECHOG Barnyardgrass; rate 0.016 kg/ha): 2.0
- ECHCG herbicidal rating (ECHOG Barnyardgrass; rate 0.032 kg/ha): 4.0
- ECHCG herbicidal rating (ECHOG Barnyardgrass; rate 0.062 kg/ha): 7.0
- ECHCG herbicidal rating (ECHOG Barnyardgrass; rate 0.125 kg/ha): 7.0
- Postemergence herbicidal rating IPOHE ([6]; 0.008 kg/ha): 9.0
- Postemergence herbicidal rating IPOHE ([6]; 0.016 kg/ha): 9.0
- Postemergence herbicidal rating IPOHE ([6]; 0.032 kg/ha): 9.0
- Postemergence herbicidal rating IPOHE ([6]; 0.062 kg/ha): 9.0
- melting point: 52 to 65 °C
- TRZAWR herbicidal rating ([7]; rate 0.016 kg/ha): 1.0
- TRZAWR herbicidal rating ([7]; rate 0.032 kg/ha): 1.0
- TRZAWR herbicidal rating ([7]; rate 0.062 kg/ha): 2.0
- TRZAWR herbicidal rating ([7]; rate 0.125 kg/ha): 2.0
- Postemergence herbicidal rating CHEAL ([8]; 0.008 kg/ha): 9.0
- Postemergence herbicidal rating CHEAL ([8]; 0.016 kg/ha): 9.0
- Postemergence herbicidal rating CHEAL ([8]; 0.032 kg/ha): 9.0
- Postemergence herbicidal rating CHEAL ([8]; 0.062 kg/ha): 9.0
- Postemergence herbicidal rating GALAP (GALAP Galium; 0.008 kg/ha): 0.0
- Postemergence herbicidal rating GALAP (GALAP Galium; 0.016 kg/ha): 1.0
